Counter-ions that a name gives are not always drawn.
Molecular target: T1, NHE-1 (Homo sapiens, UniProt P19634)
T1 construct: NHE-1 isoform which is predominantly present in human platelets; endogenous in cells; host or cells: human platelets (platelet rich plasma from blood of healthy volunteers)
Test: Primary screening assay in human platelets (acidified human platelet swelling assay)
Format: cell-based
Settings: concentration required to inhibit 50% of NHE-1 activity in isolated human platelets; mean of three readings, PRP from three donors
Method: Experiments on inhibition of NHE in human platelets are based on those published in (Cardiovasc. Res. 29: 260-268, (1995), J. Med. Chem. 41, 3736-3747, (1998)) Blood (150 mL) collected in a siliconized glass bottle from healthy volunteers was treated with aqueous acid citrate dextrose (ACD) solution (25 mL) [composition: citric acid (38 mM/L), glucose (136 mM/L) and trisodium citrate (75 mM/L)] and immediately centrifuged at 200 g for 20 min. The platelet rich plasma (PRP) was separated and a platelet count carried out using a Beckman Coulter A^c T® cell counter. The cell count was adjusted to 3×10^8 platelets/mL using platelet free plasma.
Activation of Na^+/H^+ exchanger by intracellular acidification: 150 μL of PRP was added to 750 μL of propionate buffer [composition: KCl (5 mM/L), CaCl2 (1 mM/L), MgCl2 (1 mM/L), glucose (10 mM/L), HEPES (20 mM/L), sodium propionate (140 mM/L)] of pH 6.6, in a cuvette. Optical density was recorded at 630 nm using a Shimadzu spectrophotometer (UV 1601). The micromolar concentrations of a few representative compounds required to inhibit 50% of NHE-1 activity (IC50), in isolated human platelets (acidified human platelet swelling assay) is shown in Table 2. IC50 values are the mean of three experimental readings using PRP isolated from the blood of three different donors.

T1 sequence (P19634 whole entry, canonical isoform): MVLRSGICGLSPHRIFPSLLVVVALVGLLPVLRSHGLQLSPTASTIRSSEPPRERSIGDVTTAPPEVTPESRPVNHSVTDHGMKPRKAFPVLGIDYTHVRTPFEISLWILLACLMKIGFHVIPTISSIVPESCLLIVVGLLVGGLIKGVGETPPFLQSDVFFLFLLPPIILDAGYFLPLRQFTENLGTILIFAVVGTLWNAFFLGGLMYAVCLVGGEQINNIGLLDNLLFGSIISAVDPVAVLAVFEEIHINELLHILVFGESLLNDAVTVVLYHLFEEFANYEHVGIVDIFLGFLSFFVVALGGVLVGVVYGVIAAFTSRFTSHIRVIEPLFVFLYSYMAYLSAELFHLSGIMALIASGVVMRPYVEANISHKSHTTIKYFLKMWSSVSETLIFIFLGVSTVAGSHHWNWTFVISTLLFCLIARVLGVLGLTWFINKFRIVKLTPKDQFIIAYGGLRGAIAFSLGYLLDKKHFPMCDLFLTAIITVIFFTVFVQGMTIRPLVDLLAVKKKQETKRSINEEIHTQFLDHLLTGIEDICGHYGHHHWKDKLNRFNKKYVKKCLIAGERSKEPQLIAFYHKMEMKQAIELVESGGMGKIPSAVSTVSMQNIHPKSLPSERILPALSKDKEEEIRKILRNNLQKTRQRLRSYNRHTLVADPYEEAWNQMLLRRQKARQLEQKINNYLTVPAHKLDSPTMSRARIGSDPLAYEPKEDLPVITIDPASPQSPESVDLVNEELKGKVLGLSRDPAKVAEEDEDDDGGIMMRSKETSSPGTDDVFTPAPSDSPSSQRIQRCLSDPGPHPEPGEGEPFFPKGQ

Row | Structure (SMILES) | IC50 [nM]
1 | CCN(CCN1CCCC1)c1cc(Cl)c2c(c1)CS(=O)(=O)c1cc(C(=O)N=C(N)N)cc(C)c1O2 [Example 73, N-{4-Chloro-2-[ethyl-(2-pyrrolidin-1-yl-ethyl)-amino]-6-methyl-10,10-dioxo-10,11-dihydro-5-oxa-10lambda*6*-thia-dibenzo[a,d]cycloheptene-8-carbonyl}-guanidine dimesylate] | 32
2 | Cc1cc(C(=O)N=C(N)N)cc2c1Oc1c(Cl)cc(N3CCN(Cc4ccccc4)CC3)cc1CS2(=O)=O [Example 118, N-[2-(4-Benzyl-piperazin-1-yl)-4-chloro-6-methyl-10,10-dioxo-10,11-dihydro-5-oxa-10lambda*6*-thia-dibenzo[a,d]cycloheptene-8-carbonyl]-guanidine dimesylate] | 100
3 | Cc1cc(N)cc2c1Oc1c(Cl)cc(C(=O)N=C(N)N)cc1S(=O)(=O)C2 [Example 48, N-(2-Amino-6-chloro-4-methyl-10,10-dioxo-10,11-dihydro-5-oxa-10lambda*6*-thia-dibenzo[a,d]cycloheptene-8-carbonyl)-guanidine, methane sulfonic acid salt] | 40
4 | Cc1cc(C(=O)N=C(N)N)cc2c1Oc1c(Cl)cc(S(=O)(=O)NCc3cccnc3)cc1CS2(=O)=O [Example 52, 4-Chloro-8-guanidinocarbonyl-6-methyl-10,10-dioxo-10,11-dihydro-5-oxa-10lambda*6*-thia-dibenzo[a,d]cycloheptene-2-sulfonic acid (pyridin-3-ylmethyl)-amide dimesylate] | 80
5 | Cc1cc(C(=O)N=C(N)N)cc2c1Oc1c(Cl)cc(CN)cc1CS2(=O)=O [Example 198, N-(2-Aminomethyl-4-chloro-6-methyl-10,10-dioxo-10,11-dihydro-5-oxa-10lambda*6*-thia-dibenzo[a.d]cycloheptene-8-carbonyl)-guanidine trimesylate] | 30
6 | Cc1cc(C(=O)N=C(N)N)cc2c1Oc1c(Cl)cc(NCCn3ccnc3)cc1CS2(=O)=O [Example 64, N-[4-Chloro-2-(2-imidazol-1-yl-ethylamino)-6-methyl-10,10-dioxo-10,11-dihydro-5-oxa-10lambda*6*-thia-dibenzo[a,d]cycloheptene-8-carbonyl]-guanidine dimesylate] | 28
7 | Cc1cc(C(=O)N=C(N)N)cc2c1Oc1c(Cl)cc(N)cc1CS2(=O)=O [Example 35, N-(2-Amino-4-chloro-6-methyl-10,10-dioxo-10,11-dihydro-5-oxa-10lambda*6*-thia-dibenzo[a,d]cycloheptene-8-carbonyl)-guanidine, methane sulfonic acid salt] | 20
8 | Cc1cc(C(=O)N=C(N)N)cc2c1Oc1c(Cl)cc(N3CCN(C4CC4)CC3=O)cc1CS2(=O)=O [Example 58, N-[4-Chloro-2-(4-cyclopropyl-2-oxo-piperazin-1-yl)-6-methyl-10,10-dioxo-10,11-dihydro-5-oxa-10lambda*6*-thia-dibenzo[a,d]cycloheptene-8-carbonyl]-guanidine dimesylate] | 87
9 | Cc1cc(C(=O)N=C(N)N)cc2c1N(C)c1c(Cl)cccc1C(C)S2(=O)=O (centres unmarked) [Example 194, N-(4-Chloro-5,6,11-trimethyl-10,10-dioxo-10,11-dihydro-5H-10lambda*6*-thia-5-aza-dibenzo[a.d]cycloheptene-8-carbonyl)-guanidine, methane sulfonic acid salt] | 200
10 | Cc1cc2c(cc1C(=O)N=C(N)N)S(=O)(=O)Cc1ccccc1O2 [Example 27, N-(7-Methyl-10,10-dioxo-10,11-dihydro-5-oxa-10lambda*6*-thia-dibenzo[a,d]cycloheptene-8-carbonyl)-guanidine, methane sulfonic acid salt] | 100
11 | Cc1cc(C(=O)N=C(N)N)cc2c1Oc1c(cccc1C(C)C)CS2(=O)=O [Example 31, N-(4-Isopropyl-6-methyl-10,10-dioxo-10,11-dihydro-5-oxa-10lambda*6*-thia-dibenzo[a,d]cycloheptene-8-carbonyl)-guanidine, methane sulfonic acid salt] | 200
